# Tests used:
# ATDCS chondrocytes = test: ATDCS chondrocyte mineralization (Alizarin red); format: cell-based; settings: sCPP 24 h, different concentrations
# Method: Alizarin red staining of ATDCS chondrocytes stimulated with sCPP for 24 h in DMEM+10% FBS in presence of different concentrations of compounds C5 and C6. The graphs show Alizarin red absorbance at 570-630 nm. Statistical analysis (in comparison to 0) was determined using one-way ANOVA with *p<0.05, **p<0.01, ***p<0.001, […].
# MOVAS cells [1] = test: MOVAS cell calcification assay (Alizarin red); format: cell-based, mouse
# Method: A) Alizarin red staining of MOVAS cells stimulated with sCPP for 24 h in DMEM+10% FBS and treated or not with 50 uM of compounds. […] Statistical analysis was determined using one-way ANOVA with ***p<0.001. C) Percentage of cytotoxicity (LDH %) in MOVAS treated or not with compounds for 24 h. D) MOVAS cells were seeded onto half-area 96-well plate and incubated overnight. Then C5 or C6 at 50 uM or vehicle (DMSO), L-cysteine at 10 mM, PLP at 5 uM and the H2S sensitive fluorescent probe AzMC at 10 μM were added. The fluorescence was immediately measured in kinetic mode for 2 h at 37° C. with SpectraMax M5 reader, with excitation and emission wavelengths of 365 nm and 450 nm, respectively.
# A) Alizarin red staining of Movas cells stimulated with sCPP for 24 h in DMEM+10% FBS and treated or not with 50 uM of Z20. […] C) Percentage of cytotoxicity (LDH %) in murine chondrocytes treated or not with Z20 for 24 h. Statistical analysis was determined using one-way ANOVA with ***p<0.001.
# Alizarin red staining of MOVAS cells stimulated with sCPP for 24 h in DMEM+10% FBS and treated or not with different concentrations of compounds (A: C6) and (B: Z20). The graphs show Alizarin red absorbance at 570-630 nm. Statistical analysis was determined using one-way ANOVA with *p<0.05, **p<0.01, ***p<0.001.
# CPP were generated by preparing 20 ml DMEM containing 10% FBS, 1 mmol/L CaCl2, 3.5 mmol/L inorganic phosphate (1.36 mmol/L NaH2PO4 and 2.14 mmol/L Na2HPO4) (Aghagolzadeh et al. Atherosclerosis, 2016). After 7 days incubation at 37° C., the suspension was centrifuged at 25000 g for 2 h at 4° C., and the pellet containing CPP was resuspended in 1 ml DMEM and stored at −20° C. until further use.
# Mouse vascular smooth muscle cell line (MOVAS) cells were cultured according to the manufacturer's guidelines in DMEM culture medium supplemented with 10% FBS. Cells were cultured at 37° C. in a humidified atmosphere with 5% CO2. All cell culture experiments in 96-well plates were performed in triplicates and were repeated independently two times.
# For calcification experiments, cells were seeded in 96-well plates at a density of 50,000 cells/well and left to attach for 18 h. Calcification of cell monolayers was induced by CPP (equivalent to 50 μg Ca/mL) for 24 h at 37° C., 5% CO2 in presence of various concentrations of compounds (all in final 0.1% DMSO), or of 0.1% DMSO as a control, to reach a final volume of 200 μl/well. Calcium deposition was assessed by 0.5% w/v Alizarin Red staining (pH 4.2). Briefly, after PBS washing, methanol fixation for 10 min at 4° C., and milli-Q water washing, cells were incubated for 60 min with 200 μL Alizarin Red solution and then washed four times with milli-Q water. Quantification was performed after crystal dissolution with cetylpyridinium chloride (10%) for 18 h. The absorbance was measured at 570 and 630 nm using the Spectramax M5e reader (Molecular Devices). The background (alizarin red staining obtained with cells in the absence of CPP) was subtracted from all values.
# [2] = test system: WT murine primary chondrocytes; test: Murine primary chondrocyte calcification (Alizarin red); format: cell-based, mouse; settings: sCPP 24 h, DMEM+10% FBS, 50 uM
# Method: (a) WT and Cse-deficient chondrocytes were incubated with a CSE activator (SU004, 50 μM) previously identified by high-through put screen, or with the equivalent volume of DMSO (0.1%) for 24 hours in calcification medium. STS 25 mM was used as a positive control for calcification inhibition. Calcium-containing crystals were stained with Alizarin red and quantified. (b) Cytotoxicity was assessed by LDH measurement and expressed as % over 100% cytotoxicity. (c) IL-6 secretion was measured by ELISA in supernatant of WT chondrocytes incubated with SU004 50 μM or STS 25 mM for 24 hours in calcification medium. (d) Primary human chondrocytes from 3 OA patients (P1, P2, P3) were incubated with SU004 50 μM, or with the equivalent volume of DMSO (0.1%) for 24 hours in calcification medium. Calcium-containing crystals were stained with Alizarin red and quantified. (e) Cytotoxicity was assessed by LDH measurement and expressed as % over 100% cytotoxicity. (f) IL-6 secretion was measured by ELISA in supernatant of human chondrocytes incubated for 24 hours with SU004 50 μM in calcification medium. *p<0.05, ** p<0.01, ****p<0.0001.
# Primary murine chondrocytes were stimulated with secondary calciprotein particles (sCPP) for 24 h in DMEM+10% FBS in presence of C5 or C6 at 50 uM or vehicle (DMSO). Mineralization was analyzed by Alizarin red staining of the cells (A) and quantified (B). Statistical analysis was determined using one-way ANOVA with **p<0.01 and ***p<0.001.
# Chondrocytes were isolated from 6 days old mice (Cse KO, Cse tg, Cbs KO and corresponding WT mice) as described previously (Nasi, So, et al. 2016). Tenocytes were isolated from 6 to 8 weeks old mice (Cse KO and WT) and by double digestion in Collagenase IV NB standard grade (Witec AG). […]
# After incubation in calcification media, supernatant was collected for ELISA and LDH measurement, and cell monolayer was washed in PBS, fixed in 10% formol and crystal deposition analyzed through Alizarin red staining and quantified as previously described
# MOVAS cells [3] = test: Cytotoxicity assay, LDH release; format: cell-based, mouse; settings: at 50 uM
# Method: A) Alizarin red staining of MOVAS cells stimulated with CPP for 24 h in DMEM+10% FBS in presence of different concentrations of compound 22401. […] The background (Alizarin red staining obtained with cells in the absence of CPP) was subtracted from all values. B) Percentage of cytotoxicity, as measured by LDH release, in MOVAS cells in the same conditions as A). Statistical analysis was determined using one-way ANOVA with *p<0.05, **p<0.01, ***p<0.001.
# Measurement of lactate dehydrogenase (LDH) as a means of cytotoxicity assay was performed with using CytoTox-ONE Homogeneous Membrane Integrity Assay (Promega) according to the manufacturer's instructions. Values were calculated as percentage of cytotoxicity using the following formula: [(value in sample)−(background)]/[(value in Triton X-100-treated sample)−(background)]×100.
substance,measurement,setting,value
N-{1-[(pyridin-2-yl)methyl]-1H-pyrazol-4-yl}benzamide [Compound 12],Mineralization (Alizarin red absorbance 570-630 nm),ATDCS chondrocytes,inhibit ATDCS mineralization in vitro in a dose dependent fashion
same,Calcification assay Max calcification inhibition (%) at the indicated dose of compound (uM),MOVAS cells [1]; at 50 uM,43% at
same,Mineralization (Alizarin red),"MOVAS cells [1]; sCPP 24 h, 50 uM",inhibit murine vascular smooth muscle cells (MOVAS cells) mineralization
same,Mineralization (Alizarin red absorbance 570-630 nm),"MOVAS cells [1]; sCPP 24 h, different concentrations",Dose-dependent effect
same,Mineralization (Alizarin red),[2],inhibit primary murine chondrocyte mineralization
same,Cytotoxicity assay LDH release (% of cytotoxicity),MOVAS cells [3],13% at

# Source: patent US20240182475A1 (Université de Lausanne, priority 2021, published 2024)
